The values that follow come from patent publication EP0326329B1, “Quinazoline derivatives useful as insecticides” (Dow AgroSciences LLC, priority 1988, dated 1989).

The first assay relates to Erysiphe graminis tritici (powdery mildew). As to the kind of experiment: Greenhouse Test 1, foliar spray fungicide screen (POWD MDEW), host wheat. It is filed as in vivo. To be noted: disease control rating, 400 ppm (+++ at 100 ppm).
In the case of `CCOc1ccc(CCOc2ncnc3ccccc23)cc1` [Example 15, 4-[2-(4-ethoxyphenyl)ethoxy]quinazoline], the “POWD MDEW” value is recorded as “+++ (+++ = 90-100% control at 100 ppm)”.

Turning to `CC(C)c1ccc(CCOc2ncnc3c(F)cccc23)cc1` [Example 16, 8-fluoro-4-[2-[4-(i-propyl)phenyl]ethoxy]-quinazoline], the “POWD MDEW” value was “+++ (+++ = 90-100% control at 100 ppm)”.

Consider `CC(CNc1ncnc2c(F)cccc12)c1ccc(Cl)cc1` (stereo not drawn) [Example 17, N-[2-(4-chlorophenyl)propyl]-8-fluoro-4-quinazolinamine], for which the “POWD MDEW” value is “++ (++ = 90-100% control at 400 ppm)”.

`CC(Cc1ccccc1)Oc1ncnc2ccccc12` (stereo not drawn) [Example 18, 4-(1-methyl-2-phenylethoxy)quinazoline]: the “POWD MDEW” value is “++ (++ = 90-100% control at 400 ppm)”.

For `CCOc1ccc(CCOc2ncnc3ccccc23)cc1OC` [Example 21, 4-[2-(4-ethoxy-3-methoxyphenyl)ethoxy]quinazoline], the “POWD MDEW” value is given as “+++ (+++ = 90-100% control at 100 ppm)”.

The next assay concerns Pyricularia oryzae (rice blast).
Assay: not given
It is filed as in vivo. To be noted: disease control rating, foliar spray, host rice; 400 ppm (+++ at 100 ppm).
In the case of `CCOc1ccc(CCOc2ncnc3ccccc23)cc1` [Example 15, 4-[2-(4-ethoxyphenyl)ethoxy]quinazoline], the “RICE BLAST” value is reported as “+++ (+++ = 90-100% control at 100 ppm)”.

For `CC(C)c1ccc(CCOc2ncnc3c(F)cccc23)cc1` [Example 16, 8-fluoro-4-[2-[4-(i-propyl)phenyl]ethoxy]-quinazoline], the “RICE BLAST” value is on record as “+++ (+++ = 90-100% control at 100 ppm)”.

With `CC(CNc1ncnc2c(F)cccc12)c1ccc(Cl)cc1` (stereo not drawn) [Example 17, N-[2-(4-chlorophenyl)propyl]-8-fluoro-4-quinazolinamine], the “RICE BLAST” value is reported as “+++ (+++ = 90-100% control at 100 ppm)”.

As to `CC(Cc1ccccc1)Oc1ncnc2ccccc12` (stereo not drawn) [Example 18, 4-(1-methyl-2-phenylethoxy)quinazoline], the “RICE BLAST” value is “+ (+ = 20-89% control at 400 ppm)”.

With `CCOc1ccc(CCOc2ncnc3ccccc23)cc1OC` [Example 21, 4-[2-(4-ethoxy-3-methoxyphenyl)ethoxy]quinazoline], the “RICE BLAST” value is given as “+++ (+++ = 90-100% control at 100 ppm)”.

For the next assay, the system named is Puccinia recondita tritici (leaf rust). As to the kind of experiment: Greenhouse Test 1, foliar spray fungicide screen (LEAF RUST), host wheat. To be noted: disease control rating, 400 ppm (+++ at 100 ppm). It is filed as in vivo.
For `CCOc1ccc(CCOc2ncnc3ccccc23)cc1` [Example 15, 4-[2-(4-ethoxyphenyl)ethoxy]quinazoline], the “LEAF RUST” value is reported as “+++ (+++ = 90-100% control at 100 ppm)”.

`CC(C)c1ccc(CCOc2ncnc3c(F)cccc23)cc1` [Example 16, 8-fluoro-4-[2-[4-(i-propyl)phenyl]ethoxy]-quinazoline]: the “LEAF RUST” value is recorded as “+++ (+++ = 90-100% control at 100 ppm)”.

With `CC(CNc1ncnc2c(F)cccc12)c1ccc(Cl)cc1` (stereo not drawn) [Example 17, N-[2-(4-chlorophenyl)propyl]-8-fluoro-4-quinazolinamine], the “LEAF RUST” value is reported as “+++ (+++ = 90-100% control at 100 ppm)”.

As to `CC(Cc1ccccc1)Oc1ncnc2ccccc12` (stereo not drawn) [Example 18, 4-(1-methyl-2-phenylethoxy)quinazoline], the “LEAF RUST” value is recorded as “+ (+ = 20-89% control at 400 ppm)”.

In the case of `CCOc1ccc(CCOc2ncnc3ccccc23)cc1OC` [Example 21, 4-[2-(4-ethoxy-3-methoxyphenyl)ethoxy]quinazoline], the “LEAF RUST” value is “+++ (+++ = 90-100% control at 100 ppm)”.

The subject of a further assay is Botrytis cinerea (gray mold). As to the kind of experiment: Greenhouse Test 1, foliar spray fungicide screen (GRAY MOLD), host grape berries. Type of assay: in vivo. The note with it: disease control rating, 400 ppm (+++ at 100 ppm).
Consider `CCOc1ccc(CCOc2ncnc3ccccc23)cc1` [Example 15, 4-[2-(4-ethoxyphenyl)ethoxy]quinazoline], for which the “GRAY MOLD” value is listed as “- (- = 0-19% control at 400 ppm)”.

For `CC(C)c1ccc(CCOc2ncnc3c(F)cccc23)cc1` [Example 16, 8-fluoro-4-[2-[4-(i-propyl)phenyl]ethoxy]-quinazoline], the “GRAY MOLD” value is on record as “- (- = 0-19% control at 400 ppm)”.

As for `CC(CNc1ncnc2c(F)cccc12)c1ccc(Cl)cc1` (stereo not drawn) [Example 17, N-[2-(4-chlorophenyl)propyl]-8-fluoro-4-quinazolinamine], the “GRAY MOLD” value is “- (- = 0-19% control at 400 ppm)”.

Take `CC(Cc1ccccc1)Oc1ncnc2ccccc12` (stereo not drawn) [Example 18, 4-(1-methyl-2-phenylethoxy)quinazoline]: the “GRAY MOLD” value was “- (- = 0-19% control at 400 ppm)”.

Regarding `CCOc1ccc(CCOc2ncnc3ccccc23)cc1OC` [Example 21, 4-[2-(4-ethoxy-3-methoxyphenyl)ethoxy]quinazoline], the “GRAY MOLD” value is given as “- (- = 0-19% control at 400 ppm)”.

For a further assay, the system named is Pseudoperonospora cubensis (downy mildew). Description: Greenhouse Test 1, foliar spray fungicide screen (DOWN MDEW), host squash. Type of assay: in vivo. The note with it: disease control rating, 400 ppm (+++ at 100 ppm).
For `CCOc1ccc(CCOc2ncnc3ccccc23)cc1` [Example 15, 4-[2-(4-ethoxyphenyl)ethoxy]quinazoline], the “DOWN MDEW” value is recorded as “+++ (+++ = 90-100% control at 100 ppm)”.

Consider `CC(C)c1ccc(CCOc2ncnc3c(F)cccc23)cc1` [Example 16, 8-fluoro-4-[2-[4-(i-propyl)phenyl]ethoxy]-quinazoline], for which the “DOWN MDEW” value is on record as “+++ (+++ = 90-100% control at 100 ppm)”.

`CC(CNc1ncnc2c(F)cccc12)c1ccc(Cl)cc1` (stereo not drawn) [Example 17, N-[2-(4-chlorophenyl)propyl]-8-fluoro-4-quinazolinamine]: the “DOWN MDEW” value is on record as “+++ (+++ = 90-100% control at 100 ppm)”.

Consider `CC(Cc1ccccc1)Oc1ncnc2ccccc12` (stereo not drawn) [Example 18, 4-(1-methyl-2-phenylethoxy)quinazoline], for which the “DOWN MDEW” value is on record as “++ (++ = 90-100% control at 400 ppm)”.

Consider `CCOc1ccc(CCOc2ncnc3ccccc23)cc1OC` [Example 21, 4-[2-(4-ethoxy-3-methoxyphenyl)ethoxy]quinazoline], for which the “DOWN MDEW” value was “+++ (+++ = 90-100% control at 100 ppm)”.

The next assay deals with Southern corn rootworm (Diabrotica undecimpuctata howardi Barber). As to the kind of experiment: Mite/insect screen, soil treatment (CRW). It is filed as in vivo. The note with it: Diabrotica; percent mortality; soil treatment, CRW rate 24.00 ppm; read-out: CRW RESULTS %. On the procedure:
(§1) The compounds of Examples 1-203 were tested for miticidal and insecticidal activity in the following mite/insect screen.
(§2) Each test compound was formulated by dissolving the compound in acetone/alcohol (50:50) mixture containing 23 g of "TOXIMUL R" (sulfonate/nonionic emulsifier blend) and 13 g of "TOXIMUL S" (sulfonate/nonionic emulsifier blend) per liter. These mixtures were then diluted with water to give the indicated concentrations.
Activity on Southern corn rootworm (Diabrotica undecimpuctata howardi Barber) was evaluated by adding two ml of tap water, a presoaked corn seed, and 15 g of dry sandy soil to a one ounce plastic container. The soil was treated with 1 mL of test solution containing a pre-determined concentration of test compound. After six to 12 hours of drying, five 2-3 instar corn rootworm larvae were added to the individual cups, which were then capped and held at 23°C.
(§3) After standard exposure periods, percent mortality and phytotoxicity were evaluated. […]
For `CCOc1ccc(CCOc2ncnc3ccccc23)cc1` [Example 15, 4-[2-(4-ethoxyphenyl)ethoxy]quinazoline], the mortality at 24 ppm stood at 0%.

With `CC(C)c1ccc(CCOc2ncnc3c(F)cccc23)cc1` [Example 16, 8-fluoro-4-[2-[4-(i-propyl)phenyl]ethoxy]-quinazoline], the mortality at 24 ppm is 0%.

Take `CC(CNc1ncnc2c(F)cccc12)c1ccc(Cl)cc1` (stereo not drawn) [Example 17, N-[2-(4-chlorophenyl)propyl]-8-fluoro-4-quinazolinamine]: the mortality at 24 ppm turned out to be 0%.

As for `CC(Cc1ccccc1)Oc1ncnc2ccccc12` (stereo not drawn) [Example 18, 4-(1-methyl-2-phenylethoxy)quinazoline], the mortality at 24 ppm was 100%.

Regarding `CCOc1ccc(CCOc2ncnc3ccccc23)cc1OC` [Example 21, 4-[2-(4-ethoxy-3-methoxyphenyl)ethoxy]quinazoline], the mortality at 24 ppm was found to be 100%.

In a further assay the test system is southern armyworm (Spodopetra eridania Cramer). As to the kind of experiment: Mite/insect screen, sprayed squash leaves (SAW). Type of assay: in vivo. To be noted: Spodoptera eridania, percent mortality; spray rate 400 ppm; read-out: SAW RESULTS %. On the procedure:
as §1, §2
(§4) Other plants in the same treatment pot were left uninfested. The leaves were then sprayed with 5 ml of test solution using a DeVilbiss atomizing sprayer at 10 psi. Both surfaces of the leaves were covered until runoff, and then allowed to dry for one hour. Two uninfested leaves were then excised and placed into a Petri dish containing larval southern armyworm (Spodopetra eridania Cramer).
as §3
`CCOc1ccc(CCOc2ncnc3ccccc23)cc1` [Example 15, 4-[2-(4-ethoxyphenyl)ethoxy]quinazoline]: the mortality at 400 ppm is 0%.

Take `CC(C)c1ccc(CCOc2ncnc3c(F)cccc23)cc1` [Example 16, 8-fluoro-4-[2-[4-(i-propyl)phenyl]ethoxy]-quinazoline]: the mortality at 400 ppm turned out to be 0%.

As for `CC(CNc1ncnc2c(F)cccc12)c1ccc(Cl)cc1` (stereo not drawn) [Example 17, N-[2-(4-chlorophenyl)propyl]-8-fluoro-4-quinazolinamine], the mortality at 400 ppm worked out at 0%.

`CC(Cc1ccccc1)Oc1ncnc2ccccc12` (stereo not drawn) [Example 18, 4-(1-methyl-2-phenylethoxy)quinazoline]: the mortality at 400 ppm came out at 0%.

Turning to `CCOc1ccc(CCOc2ncnc3ccccc23)cc1OC` [Example 21, 4-[2-(4-ethoxy-3-methoxyphenyl)ethoxy]quinazoline], the mortality at 400 ppm is 0%.

A further assay deals with Twospotted spider mites (Tetranychus urticae Koch). Description: Mite/insect screen, sprayed squash cotyledons (SM). Type of assay: in vivo. The note with it: Tetranychus urticae, percent mortality; spray rate 400 ppm; read-out: SM RESULTS %. On the procedure:
as §1, §2, §4, §3
Regarding `CCOc1ccc(CCOc2ncnc3ccccc23)cc1` [Example 15, 4-[2-(4-ethoxyphenyl)ethoxy]quinazoline], the mortality at 400 ppm is 0%.

`CC(C)c1ccc(CCOc2ncnc3c(F)cccc23)cc1` [Example 16, 8-fluoro-4-[2-[4-(i-propyl)phenyl]ethoxy]-quinazoline]: the mortality at 400 ppm stood at 0%.

As for `CC(CNc1ncnc2c(F)cccc12)c1ccc(Cl)cc1` (stereo not drawn) [Example 17, N-[2-(4-chlorophenyl)propyl]-8-fluoro-4-quinazolinamine], the mortality at 400 ppm came out at 100%.

Take `CC(Cc1ccccc1)Oc1ncnc2ccccc12` (stereo not drawn) [Example 18, 4-(1-methyl-2-phenylethoxy)quinazoline]: the mortality at 400 ppm stood at 0%.

For the molecule `CCOc1ccc(CCOc2ncnc3ccccc23)cc1OC` [Example 21, 4-[2-(4-ethoxy-3-methoxyphenyl)ethoxy]quinazoline], the mortality at 400 ppm stood at 60%.

Another assay deals with melon aphids (Aphis gossypii Glover). Description: Mite/insect screen, sprayed squash cotyledons (MA). It is filed as in vivo. To be noted: Aphis gossypii, percent mortality; spray rate 400 ppm; read-out: MA RESULTS %. How it is done:
as §1, §2, §4, §3
Regarding `CCOc1ccc(CCOc2ncnc3ccccc23)cc1` [Example 15, 4-[2-(4-ethoxyphenyl)ethoxy]quinazoline], the mortality at 400 ppm amounted to 0%.

Regarding `CC(C)c1ccc(CCOc2ncnc3c(F)cccc23)cc1` [Example 16, 8-fluoro-4-[2-[4-(i-propyl)phenyl]ethoxy]-quinazoline], the mortality at 400 ppm came out at 0%.

Turning to `CC(CNc1ncnc2c(F)cccc12)c1ccc(Cl)cc1` (stereo not drawn) [Example 17, N-[2-(4-chlorophenyl)propyl]-8-fluoro-4-quinazolinamine], the mortality at 400 ppm turned out to be 100%.

Regarding `CC(Cc1ccccc1)Oc1ncnc2ccccc12` (stereo not drawn) [Example 18, 4-(1-methyl-2-phenylethoxy)quinazoline], the mortality at 400 ppm stood at 0%.

Regarding `CCOc1ccc(CCOc2ncnc3ccccc23)cc1OC` [Example 21, 4-[2-(4-ethoxy-3-methoxyphenyl)ethoxy]quinazoline], the mortality at 400 ppm is 80%.
